Assay results reported in ChEMBL document CHEMBL1152192, “Carbonic anhydrase inhibitors. Inhibition of the beta-class enzyme from the yeast Saccharomyces cerevisiae with anions” (Bioorg Med Chem Lett, 2008).

Tests used:
Carbonic anhydrase [1] = target: T1, Carbonic anhydrase (Candida albicans (strain SC5314 / ATCC MYA-2876) (Yeast), UniProt Q5AJ71); assay: Inhibition of Candida albicans carbonic anhydrase overexpressed in Escherichia coli BL21 (DE3) by CO2 hydration stopped-flow assay
T1 sequence (Q5AJ71 whole entry): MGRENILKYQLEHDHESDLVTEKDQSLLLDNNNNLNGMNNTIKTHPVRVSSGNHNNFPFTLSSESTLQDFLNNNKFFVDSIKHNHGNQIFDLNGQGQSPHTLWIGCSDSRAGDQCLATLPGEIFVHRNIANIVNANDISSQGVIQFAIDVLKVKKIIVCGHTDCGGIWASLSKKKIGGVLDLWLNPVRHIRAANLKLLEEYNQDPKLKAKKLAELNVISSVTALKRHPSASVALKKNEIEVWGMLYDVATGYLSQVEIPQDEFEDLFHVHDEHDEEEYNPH

Carbonic anhydrase [2] = target: T2, Carbonic anhydrase (Saccharomyces cerevisiae S288c, UniProt P53615); assay: Inhibition of Saccharomyces cerevisiae carbonic anhydrase overexpressed in Escherichia coli BL21 (DE3) by CO2 hydration stopped-flow assay
T2 sequence (P53615 whole entry): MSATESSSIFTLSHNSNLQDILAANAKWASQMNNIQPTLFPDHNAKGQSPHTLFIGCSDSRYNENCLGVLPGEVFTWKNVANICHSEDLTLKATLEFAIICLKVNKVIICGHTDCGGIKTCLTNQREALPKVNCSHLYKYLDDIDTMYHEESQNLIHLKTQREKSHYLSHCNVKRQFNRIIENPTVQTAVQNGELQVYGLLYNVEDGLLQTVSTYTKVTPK

Carbonic anhydrase [3] = target: T2, Carbonic anhydrase; assay: Inhibition of Saccharomyces cerevisiae carbonic anhydrase by stopped-flow CO2 hydration assay

Row | Structure (SMILES) | Ki (Carbonic anhydrase [1]) [µM] | Ki (Carbonic anhydrase [2]) [µM] | Ki (Carbonic anhydrase [3]) [µM]
1 | NS(N)(=O)=O [SULFAMIDE] | 300 | 8.7 | –
2 | OB(O)c1ccccc1 [PHENYLBORONIC ACID] | 30900 | 38200 | –
3 | CCOc1ccc2nc(S(N)(=O)=O)sc2c1 [ETHOXZOLAMIDE] | – | – | 16
4 | NS(=O)(=O)O [SULFAMATE] | 700 | 840 | –
